Experimental data taken from ChEMBL document CHEMBL5726262, “BET protein-inhibiting 5-aryltriazoleazepines” (2017).

Target: Bromodomain-containing protein 4 (Homo sapiens, UniProt O60885)
Experiment: Time-Resolved Fluorescence Resonance energy Transfer (TR-FRET) Assay: For this purpose, a time-resolved fluorescence resonance energy transfer (TR-FRET) assay was used, which measures the binding between N-terminally His6-tagged BRD4(1) (amino acids 44-168) and a synthetic acetylated histone H4 (Ac-H4) peptide with sequence GRGK(Ac)GGK(Ac)GLGK(Ac)GGAK(Ac)RHGSGSK-biotin. The recombinant BRD4 protein produced in-house according to Filippakopoulos et al., Cell, 2012, 149:214-231 was expressed in E. coli and purified by means of (Ni-NTA) affinity and (Sephadex G-75) size exclusion chromatography. The Ac-H4 peptide can be purchased, for example, from Biosyntan (Berlin, Germany).In the assay, typically 11 different concentrations of each substance (0.1 nM, 0.33 nM, 1.1 nM, 3.8 nM, 13 nM, 44 nM, 0.15 μM, 0.51 μM, 1.7 μM, 5.9 μM and 20 μM) were analysed as duplicates on the same microtitre plate. For this purpose, 100-fold concentrated solutions in DMSO were prepared by serial dilutions (1:3.4) of a 2 mM stock solution into a clear, 384-well microtitre plate (Greiner Bio-One, Frickenhausen, Germany). From this, 50 nl were transferred into a black test plate (Greiner Bio-One, Frickenhausen, Germany). […]

IC50: 0.22 µM
SMILES: Cc1nnc2n1-c1ccc(OC(F)(F)F)cc1C(c1ccc(Cl)cc1)=C[C@H]2CC(=O)N1CC2(COC2)C1
